Measurements: article PMC10724690, “Deciphering specificity and cross-reactivity in tachykinin NK1 and NK2 receptors” (The Journal of Biological Chemistry, 2023)
Where no end group is shown, it is not given here.

What was measured:
NK1R [1] = molecular target: T1, NK1R (Homo sapiens, UniProt P25103); assay: IP3 (IP accumulation) assay, wildtype NK1R; type: cell-based
T1 construct: host or cells: COS7
Procedure: (§1) COS7 cells (derived from African green monkey kidney fibroblast and originally bought from ThermoFisher) were maintained in Dulbecco´s Modified Eagle´s Medium 1885 with GlutaMAX supplemented with 10% fetal bovine serum (Sigma-Aldrich), 100 units/ml penicillin and 100 μg/ml streptomycin at 37 °C with 10% CO2. COS7 cells were plated in either clear-, white-, or white with clear bottom 96-well plates that were coated with poly-D-lysine (Sigma-Aldrich) 30 min prior to cell seeding (20.000 cells/well). The following day plates were transiently transfected using calcium precipitation with 200 ng/well DNA in a culture medium with the addition of 100 μM (final concentration) Chloroquine. Transfection was stopped 5 h later with the addition of a fresh maintenance medium. Fig. […] COS7 cells seeded in clear 96-well plates were incubated with 0.5 μCi/ml myo [3H]inositol (PerkinElmer) in 100 μl growth medium over night following the transfection. The subsequent day cells were washed twice with 200 μl/well HBSS (GIBCO, Life Technologies) and pre-incubated for 5 min at 37 °C with 100 μl/well HBSS buffer supplemented with 10 mM LiCl. […] Measurements (scintillation) were recorded on a Microbeta (PerkinElmer) after a 4 h delay and determinations were made in duplicates. All dose-response curves have been calculated using Prism 10 software (GraphPad Software) non-linear regression with four parameters. […]

NK1R-R177Q [2] = molecular target: T2, NK1R-R177Q (Homo sapiens, UniProt P25103, R177Q); assay: IP3 activation assay, NK1R-R177Q; type: cell-based; settings: COS-7
T2 construct: host or cells: COS7
T2 sequence (P25103 whole entry R177Q): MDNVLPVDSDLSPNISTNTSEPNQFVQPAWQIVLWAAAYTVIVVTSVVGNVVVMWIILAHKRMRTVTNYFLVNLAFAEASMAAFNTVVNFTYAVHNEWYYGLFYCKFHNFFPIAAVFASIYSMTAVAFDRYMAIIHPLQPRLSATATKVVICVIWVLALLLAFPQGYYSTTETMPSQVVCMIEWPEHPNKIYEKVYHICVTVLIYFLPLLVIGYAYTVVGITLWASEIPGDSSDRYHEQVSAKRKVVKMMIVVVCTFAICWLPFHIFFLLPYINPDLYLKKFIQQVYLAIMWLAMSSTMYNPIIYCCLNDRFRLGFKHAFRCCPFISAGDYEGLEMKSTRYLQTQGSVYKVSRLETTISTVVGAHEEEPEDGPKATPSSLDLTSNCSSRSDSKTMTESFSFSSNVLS
Procedure: as §1

NK1R [3] = molecular target: T1, NK1R; assay: BRET-based cAMP assay, wildtype NK1R; type: cell-based; settings: COS-7, Fig 7d, NK1R WT, ligand NKA (by identity with Fig 5b values)
Procedure: (§2) COS7 cells (derived from African green monkey kidney fibroblast and originally bought from ThermoFisher) were maintained in Dulbecco´s Modified Eagle´s Medium 1885 with GlutaMAX supplemented with 10% fetal bovine serum (Sigma-Aldrich), 100 units/ml penicillin and 100 μg/ml streptomycin at 37 °C with 10% CO2. COS7 cells were plated in either clear-, white-, or white with clear bottom 96-well plates that were coated with poly-D-lysine (Sigma-Aldrich) 30 min prior to cell seeding (20.000 cells/well). The following day plates were transiently transfected using calcium precipitation with 200 ng/well DNA in a culture medium with the addition of 100 μM (final concentration) Chloroquine. Transfection was stopped 5 h later with the addition of a fresh maintenance medium. Fig. […] The intracellular level of cAMP was monitored in real-time using bioluminescence resonance energy transfer (BRET). This was achieved by implementing a construct consisting of a cAMP binding protein (Exchange protein activated by cAMP (Epac)) which has been flanked by a BRET pair consisting of Renilla luciferase (Rluc) and yellow fluorescent protein (YFP). […] The BRET signal was calculated as the ratio of emission intensity at 535 nm (citrine) to the emission intensity at 475 nm (luciferase). […] All dose-response curves have been calculated using Prism 10 software (GraphPad Software) non-linear regression with four parameters. […]

NK1R-R177K = molecular target: T3, NK1R-R177K (Homo sapiens, UniProt P25103, R177K); assay: BRET-based cAMP assay, NK1R-R177K; type: cell-based; settings: COS-7
T3 construct: host or cells: COS7
T3 sequence (P25103 whole entry R177K): as the sequence (P25103 whole entry R177Q) above, with Q177K counted along it
Procedure: as §2

NK1R-R177Q [4] = molecular target: T2, NK1R-R177Q; assay: BRET-based cAMP assay, NK1R-R177Q; type: cell-based; settings: COS-7
Procedure: as §2

NK2R [5] = molecular target: T4, NK2R (Homo sapiens, UniProt P21452); settings: ref [19], cited from earlier work
T4 construct: host or cells: COS7
T4 sequence (P21452 1-398): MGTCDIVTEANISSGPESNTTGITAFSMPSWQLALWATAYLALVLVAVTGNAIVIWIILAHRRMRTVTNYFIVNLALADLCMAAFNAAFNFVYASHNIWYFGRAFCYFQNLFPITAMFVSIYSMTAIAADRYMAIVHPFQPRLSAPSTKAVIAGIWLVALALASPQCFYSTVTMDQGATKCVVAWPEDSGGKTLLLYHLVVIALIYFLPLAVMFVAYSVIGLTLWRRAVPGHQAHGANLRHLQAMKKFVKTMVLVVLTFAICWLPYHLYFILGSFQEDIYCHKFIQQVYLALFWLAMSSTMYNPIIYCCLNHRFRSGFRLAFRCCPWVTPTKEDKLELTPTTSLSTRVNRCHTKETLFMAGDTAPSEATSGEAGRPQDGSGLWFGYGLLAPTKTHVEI
Excerpt: In sharp contrast, NKA-D4 and NKA6-10 are found to be critical for activity.

NK2R [6] = molecular target: T4, NK2R; assay: IP3 (IP accumulation) assay, wildtype NK2R; type: cell-based; settings: for Emax: Fig 3a, alanine scan of NKA, dose response, IP accumulation ([3H]inositol, SPA) in transfected COS7 cells, 10 mM LiCl, 150 min 37 °C, four-parameter fit
Procedure: COS7 cells (derived from African green monkey kidney fibroblast and originally bought from ThermoFisher) were maintained in Dulbecco´s Modified Eagle´s Medium 1885 with GlutaMAX supplemented with 10% fetal bovine serum (Sigma-Aldrich), 100 units/ml penicillin and 100 μg/ml streptomycin at 37 °C with 10% CO2. COS7 cells were plated in either clear-, white-, or white with clear bottom 96-well plates that were coated with poly-D-lysine (Sigma-Aldrich) 30 min prior to cell seeding (20.000 cells/well). The following day plates were transiently transfected using calcium precipitation with 200 ng/well DNA in a culture medium with the addition of 100 μM (final concentration) Chloroquine. Transfection was stopped 5 h later with the addition of a fresh maintenance medium. Fig. […] COS7 cells seeded in clear 96-well plates were incubated with 0.5 μCi/ml myo [3H]inositol (PerkinElmer) in 100 μl growth medium over night following the transfection. The subsequent day cells were washed twice with 200 μl/well HBSS (GIBCO, Life Technologies) and pre-incubated for 5 min at 37 °C with 100 μl/well HBSS buffer supplemented with 10 mM LiCl. Ligand addition was followed by 150 min incubation at 37 °C. To stop ligand incubation, cells were lysed with 40 μl 10 mM formic acid followed by 30 min incubation on ice. 35 μl of the lysate was transferred to white 96-well plates together with 60 μl of 1:8 diluted YSi SPA scintillation beads (PerkinElmer). Plates were sealed and vigorously shaken for 15 min followed by 5 min centrifugation at 1500 rpm. Measurements (scintillation) were recorded on a Microbeta (PerkinElmer) after a 4 h delay and determinations were made in duplicates. All dose-response curves have been calculated using Prism 10 software (GraphPad Software) non-linear regression with four parameters. All data are shown as mean ± SEM unless stated otherwise and consist of two technical replicates from three biological replicates.

T1 sequence (P25103 whole entry): as the sequence (P25103 whole entry R177Q) above, with Q177R counted along it

EC50 (NK2R [6]) | Emax (NK2R [6]) | Compound | further results
 |  | CSCC[C@H](NC(=O)[C@H](CC(C)C)NC(=O)CNC(=O)[C@@H](NC(=O)[C@H](Cc1ccccc1)NC(=O)[C@H](CO)NC(=O)[C@H](CC(=O)O)NC(=O)[C@@H](NC(=O)[C@H](CCCCN)NC(=O)[C@@H](N)Cc1c[nH]cn1)[C@@H](C)O)C(C)C)C(N)=O [NKA, neurokinin A] | Emax (NK1R [1]; COS-7, Fig 7c, IP3 activation assay, NK1R WT, ligand NKA (by identity with Fig 5a values)): 100%; Emax (NK1R [1]; COS-7, Fig 5a, IP3 assay, NK1R WT in COS7 cells): 100%; Emax (NK1R-R177Q [2]): 59.3%; Emax (NK1R [3]): 109%; Emax (NK1R-R177K): 10.7%; Emax (NK1R-R177Q [4]): 13.1%
 |  | KDSFVGL(γ-lactam)M-NH2 [GR64349] | selectivity (NK2R [5]; NK2R agonist selectivity): most selective NK2R agonist reported so far; agonist character (NK2R [5]): full agonist
0.598 nM |  | HKADSFVGLM-NH2 [Ala3] | 
 | 1066 | Ala4: NKA variant of the alanine scan, alanine in position 4 (Asp) (HKTASFVGLM; ends and bridges not checked; UniProt P20366 98-107, looked up, variant D4A) | 
31.9 nM |  | HKTDSFVGLA-NH2 [Ala10] | 
0.68 nM |  | HATDSFVGLM-NH2 [Ala2] | 
 | 178 | Ala7: NKA variant of the alanine scan, alanine in position 7 (HKTDSFAGLM; ends and bridges not checked; UniProt P20366 98-107, looked up, variant V7A) | 
 | 136 | Ala9: NKA variant of the alanine scan, alanine in position 9 (HKTDSFVGAM; ends and bridges not checked; UniProt P20366 98-107, looked up, variant L9A) | 
0.715 nM |  | CSCC[C@H](NC(=O)[C@H](CC(C)C)NC(=O)CNC(=O)[C@@H](NC(=O)[C@H](Cc1ccccc1)NC(=O)[C@H](CO)NC(=O)[C@H](CC(=O)O)NC(=O)[C@@H](NC(=O)[C@H](CCCCN)NC(=O)[C@H](C)N)[C@@H](C)O)C(C)C)C(N)=O [Ala1] | 
25.9 nM |  | HKTDAFVGLM-NH2 [Ala5] | 
